From patent publication US20110105623A1 (Biogenic Innovations, LLC, priority 2009, published 2011)
Where “and” joins values, the source holds several entries; their conditions need not be identical. Equal values may be shown once. Read-outs that look alike come from different tables or passages of the source.

Columns and labels:
Format in all cases: cell-based
Candida albicans = assay: USP <51> AET in cosmetic cream/composition; conditions: for AET microorganism count: 48 hrs-28 days; for Log Reduction from Initial Microorganism Inoculum: 14, 28 Days
Bacillus coagulans = assay: Colony formation, population weight and percent transmittance with MSM; conditions: 546 nm, 25x25 mm agar section, 1.0, 2.5, 5.0% MSM
Description: The microorganisms were grown for 72 hours in 30 milliliters of tryptic soy broth. At the end of the 72 hours, the broth was measured for colony formation, with photographic documentation of colony formation on tryptic soy agar. Percent transmittance was also measured on a 25 mm×25 mm area of the tryptic soy agar placed between two microscope slides in a spectrophotometer.
For the Bacillus coagulans, the organism was isolated and grown for 24 hours before harvesting. The harvested microorganism was placed into a sterile 100 mL bottle called dilution A. Dilution A was further diluted into one working solution, with a count of 210 Bacillus coagulans per 1 mL, called dilution B. One milliliter of Dilution B was used to inoculate the 30 mL of TSB concentrations stated above.
Each dilution for the microorganism was plated in triplicate for each sample. To capture the appropriate colonies per milliliter, the microorganism was plated at six different dilutions.
The population count was based on the dilution of the tryptic soy broth after 72 hours and inoculation on to tryptic soy agar plates. The plates were incubated for 48 hours and enumerated.
The tryptic soy broth after 72 hours was centrifuged down in a conical vial. The supernatant was pulled off and the pellet was washed. The centrifuging and washing was repeated three times. […] Each vial was weighed empty and recorded. […]

[1] = tested on: Acidophilus plus Bifidus milk microorganisms; assay: Recovery from Acidophilus plus bifidus milk fortified with MSM; conditions: for Lag Recovery of Lactobacillus acidophilus in Milk fortified with MSM Day 14: A/B 2.5 MSM; for Lag Recovery of Lactobacillus acidophilus in Milk fortified with MSM Day 7 / Lag Recovery of Lactobacillus acidophilus in Milk fortified with MSM Day 21 / Lag Recovery of Lactobacillus acidophilus in Milk fortified with MSM Day 28: A/B […] MSM
[2] = tested on: Rhinovirus type 14 (ATCC #VR-284)

Methylsulfonylmethane [MSM]
AET microorganism count (Candida albicans; 10% MSM in Preservative Free Cosmetic Composition #2, 48 hours after inoculation): 9.0 × 10^2 | AET microorganism count (Candida albicans; 10% MSM in Preservative Free Cosmetic Composition #2, 7 days after inoculation): <10 | AET microorganism count (Candida albicans; 10% MSM in cosmetic cream without preservative): <10 | Log Reduction from Initial Microorganism Inoculum (Candida albicans; 10% MSM in preservative-free jojoba cream): 4.3 log | Log Reduction from Initial Microorganism Inoculum (Candida albicans; 10% MSM, Composition #1): 5.3 log | Log Reduction from Initial Microorganism Inoculum (Candida albicans; 10% MSM, Composition #2): 5.3 log | Percent Transmittance (Bacillus coagulans; 1.0% MSM): 51.5% | Percent Transmittance (Bacillus coagulans; 5.0% MSM): 45.6% | Lag Recovery of Lactobacillus acidophilus in Milk fortified with MSM Day 14 ([1]; Day 14-24): 13.35 logs | Lag Recovery of Lactobacillus acidophilus in Milk fortified with MSM Day 14 ([1]; Day 14-48): 13.47 logs | Lag Recovery of Lactobacillus acidophilus in Milk fortified with MSM Day 14 ([1]; Day 14-72): 13.43 logs | Lag Recovery of Lactobacillus acidophilus in Milk fortified with MSM Day 7 ([1]; Day 7-24): 13.44 logs | Lag Recovery of Lactobacillus acidophilus in Milk fortified with MSM Day 7 ([1]; Day 7-72): 12.77 logs | Lag Recovery of Lactobacillus acidophilus in Milk fortified with MSM Day 21 ([1]; Day 21-24): 13.08 logs | Lag Recovery of Lactobacillus acidophilus in Milk fortified with MSM Day 21 ([1]; Day 21-48): 12.08 logs | Lag Recovery of Lactobacillus acidophilus in Milk fortified with MSM Day 21 ([1]; Day 21-72): 12.33 logs | Lag Recovery of Lactobacillus acidophilus in Milk fortified with MSM Day 28 ([1]; Day 28-24): 12.67 logs | Lag Recovery of Lactobacillus acidophilus in Milk fortified with MSM Day 28 ([1]; Day 28-48): 13.19 logs | Lag Recovery of Lactobacillus acidophilus in Milk fortified with MSM Day 28 ([1]; Day 28-72): 12.00 logs | Recovery of Lactobacillus acidophilus in Milk fortified with MSM Day 7, initial start data ([1]; Ac/Bf […] MSM, Day 7): 8.42 logs | Recovery of Lactobacillus acidophilus in Milk fortified with MSM Day 14, initial start data ([1]; Ac/Bf […] MSM, Day 14-0): 3.70 logs | Recovery of Lactobacillus acidophilus in Milk fortified with MSM Day 21, initial start data ([1]; Ac/Bf […] MSM, Day 21): 3.37 logs | Recovery of Lactobacillus acidophilus in Milk fortified with MSM Day 28, initial start data ([1]; Ac/Bf […] MSM, Day 28): 1.94 logs | Day 7 log recovery growth rate increase from start time of zero ([1]; Ac/Bf […] MSM, Hour 0): 0.00 logs | Day 14 log recovery growth rate increase from start time of zero ([1]; Ac/Bf […] MSM, Hour 0): 0.00 logs | Day 21 log recovery growth rate increase from start time of zero ([1]; Ac/Bf […] MSM, Hour 0): 0.00 logs | Day 7 log recovery growth rate increase from start time of zero ([1]; Ac/Bf […] MSM, Hour 24): 5.02 logs | Day 14 log recovery growth rate increase from start time of zero ([1]; Ac/Bf […] MSM, Hour 24): 9.65 logs | Day 21 log recovery growth rate increase from start time of zero ([1]; Ac/Bf […] MSM, Hour 24): 9.71 logs | Day 7 log recovery growth rate increase from start time of zero ([1]; Ac/Bf […] MSM, Hour 48): −0.94 logs | Day 14 log recovery growth rate increase from start time of zero ([1]; Ac/Bf […] MSM, Hour 48): 0.12 logs | Day 21 log recovery growth rate increase from start time of zero ([1]; Ac/Bf […] MSM, Hour 48): −1.00 logs | Day 7 log recovery growth rate increase from start time of zero ([1]; Ac/Bf […] MSM, Hour 72): 0.27 logs | Day 14 log recovery growth rate increase from start time of zero ([1]; Ac/Bf […] MSM, Hour 72): −0.04 logs | Day 21 log recovery growth rate increase from start time of zero ([1]; Ac/Bf […] MSM, Hour 72): 0.25 logs | Day 28 log recovery growth rate increase from start time of zero ([1]; Ac/Bf […] MSM, Time 0): 0.00 logs | Day 28 log recovery growth rate increase from start time of zero ([1]; Ac/Bf […] MSM, Time 24): 10.73 logs | Day 28 log recovery growth rate increase from start time of zero ([1]; Ac/Bf […] MSM, Time 48): 0.52 logs | Day 28 log recovery growth rate increase from start time of zero ([1]; Ac/Bf […] MSM, Time 72): −1.19 logs | Average Log Stimulation [2]: 0.053log10 and 0.11log10 | Average Percent Stimulation [2]: 11.49% and 22.38% | Average TCID50 [2]: 4.42log10 and 5.00log10 and 5.58log10 and 5.42log10 and 5.67log10 and 5.25log10 | Log Stimulation [2]: 0.08log10 and 0.00log10 and 0.17log10 | TCID50 [2]: 4.25log10 and 4.50log10 and 4.75log10 and 5.00log10 and 5.25log10 and 5.50log10 and 6.00log10 and 5.75log10 | average log10 reduction ([2]; 1% MSM): 0.14 log10 | average percent reduction ([2]; 1% MSM): 27.56% | average log10 reduction ([2]; 2% MSM): 0.42 log10 | average percent reduction ([2]; 2% MSM): 61.98% | average log10 reduction ([2]; 3% MSM): 0.11 log10 | average percent reduction ([2]; 3% MSM): 22.38% | average log10 reduction ([2]; 4% MSM): 0.28 log10 | average percent reduction ([2]; 4% MSM): 47.52% | HillSlope, best-fit value ([2]; log(inhibitor) vs. normalized response, variable slope): 0.6280 | LogIC50, best-fit value ([2]; log(inhibitor) vs. normalized response, variable slope, dose in mM): 1.582
